Structures are written as SMILES.

In series [1] the test system is 4T1 cells. Briefly: MTT cell growth assay in 4T1 cells. Format: cell-based, mouse. As for the experimental part: (§1) Cell Culture Either cell line 4T1 or 67NR was a gift from Dr. Miller (20). The cells were cultured in RPMI1640 medium supplemented with glucose (14 mM), pyruvate (1 mM), penicillin (100 units/ml), streptomycin (100 μg/ml), and fetal bovine serum (10%), buffered with 25 mM HEPES (pH 7.4). LNCaP human prostate cancer cell line was purchased from American Type Culture Collection (Manassas, Va.). The cell line was cultured in RPMI1640 medium supplemented with glucose (14 mM), pyruvate (1 mM), penicillin (100 units/ml), streptomycin (100 μg/ml), and fetal bovine serum (10%). Drugs were dissolved in dimethyl sulfoxide (DMSO) at a suitable concentration so that the final concentration of DMSO in the medium was less than 0.1%.
MTT assay: Cells were incubated in PBS (−) supplemented with 5% fetal calf serum and 0.5 mg/ml MTT, 3-(4,5-Dimethylthiazol-2-yl)-2,5-diphenyltetrazolium bromide (Sigma, Saint Louis, Mo.) for 2 hrs. After the incubation, the cells were dissolved in dimethyl sulfoxide and the color of the solutions was measured by a spectrophotometer at wavelengths of 540 and 690 nm. The values correlated with viable cell numbers were obtained by subtracting the optical density at 690 nm from that, at 540 nm.

For series [2] the following is noted: cited from earlier work.
The conditions of series [3]: daily (1 mg/day) IV injection, nude mice carrying human tumor xenografts; cited from earlier work. In general terms: A xenograft is tissue or cells of one species grown in another, often human tumour cells in immunodeficient mice.
In series [4] the test system is LNCaP tumors. Briefly: Nude mice orthotropically implanted with LNCaP tumors, about eight times tumor volume, treatment from day 3. Format: in vivo, mouse.
Method: Surgical orthotropic implantation of LNCaP tumors: LNCaP cells were grown as described above. Cells growing subconfluently were collected and resuspended into the tissue culture medium without fetal bovine serum and antibiotics. After counting the number of the cells, the cell concentration was adjusted using the same medium. After 20 μl of the medium containing a selected number of cancer cells (about 5×10^7 cells) had been mixed together with the same volume of Matrigel (BD science, Bedford, Mass.), the combined solution was injected into the skin of nude mice. […] The tumor tissue extracted from the skin was excised into pieces of about 2 mm diameter. After nude mice were anesthetized by 2,2,2-Tribromoethanol (Aldrich Chemical Co. Inc., Milwaukee, Wis.), a small incision was made at the abdomen of each mouse and a tumor tissue piece was implanted in the neighbor of the prostate of each mouse. Eight days after the operation, the injection of drugs was initiated, and the drugs were injected intravenously every day for the indicated periods
As in the previous experiment (FIGS. 9 to 13), in this study we administered M4N, Ly, Ro, Etoposide, or Rapamycin to mice intravenously using CPE (25/30) solvent system (87). […] However, in this experiment we implanted about eight times the volume of tumors as in the previous experiments to detect the difference of efficacy of various combination treatments much faster. We started to treat the mice with combination treatments three days after the implantation instead of eight days, considering that the tumor volume is already large at the time of implantation in this experiment. This allows less time for possible metastasis to the transplanted tumors in this experiment than in the previous one.
Series [5] has as its system 67NR cells. Nature of the series: 67NR tumor-bearing Balb/c mice (life-span). Format: in vivo, mouse. To be noted: 5×10^4 cells, M4N 1 mg/shot, Rottlerin 100 μg/shot, three days a week from day 8. The method, then:
(§2) Animals: Female Balb/e mice were obtained from Charles River Laboratories (Wilmington, Mass.). M4N and Rottlerin were dissolved into a solvent, CPE (25/30) solvent system supplied by Erimos Pharmaceutical, L.L.C. (Raleigh, N.C.) and injected into mice either intravenously or intraperitoneally, T-cell deficient male nude mice (nu/nu) were obtained from Charles River Laboratories (Wilmington, Mass.). M4N and Ly294002 were dissolved into a solvent, CPE (25/30) solvent system supplied by Erimos Pharmaceutical, L.L.C. (Raleigh, N.C.) and injected into mice intravenously.
(§3) Tumor inoculation: Either 4T1 or 67NR cells were grown as described above. Cells growing subconfluently were collected and resuspended into the tissue culture medium minus fetal bovine serum and antibiotics, After counting the number of the cells, the cell concentration was adjusted. Twenty μl of the solution containing a selected number of cancer cells (either 5×10^3 or 5×10^4 cells) was injected into each fat pad of a pair of mammary glands located close to lower limbs. Tumor size was measured by weighing tumors extracted from mouse cadavers.

The subject of series [6] is 4T1 cells. Nature of the series: TUNEL apoptosis assay in 4T1 cells. Format: cell-based, mouse. To be noted: 4T1, 48 hr after treatment, M4N 80 μM. As for the experimental part:
as §1
(§4) Apoptosis assay: Simple TLTNEL assay was conducted by using TUNEL apoptosis detection kit (Upstate, Temecula, Calif.) with some modification. For the evaluation of the effect of PKCδ wild type and dominant negative vectors on TUNEL-positive cell death, we first transfected 4T1 or 67NR cells with these vectors by effectene (Qiagen, Valencia, Calif.). Wild type PKCδ vector is constructed from wild type PKCδ gene and pEGFP (Promega, Madison, Wis.). Dominant negative PKCδ vector is constructed from PKCδ gene mutated at a 376th amino acid residue (threonine) and pEGFP (Promega, Madison, Wis.) This threonine residue is located in ATP-binding domain of protein kinase Cδ, and therefore essential for any kinase reaction of the protein so that this mutant protein supposedly function as dominant negative. As a control we used pEGFP-N3 vector was used. These vectors contain green fluorescent protein (GFP) gene to be used as a transfection marker. The vectors are kind gifts from Dr. Yuspa (National Institutes of Health, Bethesda, Md.) (88). Twenty four hours after transfection, the cells were treated with M4N, Rottlerin, or Ly294002. Then 24 hrs after this treatment with these reagents, the cells were fixed with 10% formaldehyde in phosphate buffered saline without calcium and magnesium (PBS (−)). The cells were then incubated with rabbit anti-GFP antibody (MBL International, Woburn, Mass.) followed by treatment with anti-rabbit IgG antibody conjugated with fluorescein (Promega, Madison, Wis.). TUNEL staining was conducted by using TUNEL apoptosis detection kit (Upstate, Temecula, Calif.) except for using Streptavidin-Alexa Fluor 568 (Molecular Probes, Eugene, Oreg.) instead of Avidine-Rhodamine contained in the kit. Cell death was evaluated by dividing the number of TUNEL-positive cells among the cells positive with anti-GFP staining by the number of these GFP-positive cells.

Series [7] relates to 67NR cells. Nature of the series: TUNEL apoptosis assay in 67NR cells. The settings on record: 48 hr after treatment, M4N 80 μM. Format: cell-based, mouse. As for the experimental part: as §1, §4
For series [8], the system named is 4T1 cells. Briefly: 4T1 tumor-bearing Balb/c mice (life-span, tumor size). Format: in vivo, mouse. The settings on record: 5×10^4 cells, M4N 1 mg/shot, Rottlerin 100 μg/shot, three days a week from day 7. The method, then:
as §2, §3

Series [9] relates to PKCδ. Briefly: Immunocytochemistry of PKCδ cellular localization in 4T1 cells. Format: cell-based, mouse. The settings on record: 4T1, 5 hrs. As for the experimental part:
(§5) Immunocytocheimstry: Cells were cultured on glass cover slips coated with poly-L-ornithine (Sigma, Saint Louis, Mo.). At 5 hrs after treatment with drugs, the cells were fixed with 10% formaldehyde in diluted in PBS (−) and washed with PBS (−) three times. After permeabilized by 0.2% Tryton X-100 and 1% goat serum diluted in PBS (−), the cells were blocked by PBS (−) containing 5% goat serum. The cells were then incubated with primary antibodies diluted in PBS (−) containing 0.5% bovine serum albumin (BSA), and with secondary antibodies, which is either anti-IgG conjugated with fluorescein (Vector Laboratories. Burlingame, Calif.), diluted in PBS (−) containing 0.5% BSA. The cells were observed through Zeiss fluorescent microscope (Carl Zeiss, Thornwood, N.Y.).

Series [10] relates to PKCδ. Nature of the series: Immunocytochemistry of PKCδ cellular localization in LNCaP cells. Format: cell-based, human. The settings on record: 5 hrs. As for the experimental part: as §5

`COc1ccc(C[C@@H](C)[C@@H](C)Cc2ccc(OC)c(OC)c2)cc1OC` [M4N, tetra-O-methyl nordihydroguaiaretic acid]: the “cell growth (MTT) at 20 μM” value in series [1] (4T1, 20 μM) is reported as “significant effect of the drug to reduce cell growth”. For the same molecule, in series [1] (4T1, MTT), the “concentration at which cell growth stopped” value turned out to be 80 µM and the “time after treatment at which effect on cell growth was evident” value was 42 h. The “cell growth (MTT)” value in [1] (4T1, different concentrations of M4N) is “reduced the cell growth of 4T1 cells depending on the concentration of the drug”. The “toxic effects after oral administration” value in [2] (mouse, in vivo, po) is “essentially no toxic effects”. For the same molecule, the “M4N concentration retained in mouse organs” value in series [2] (oral administration, short term and long term feeding) was ≤ 906 μg/g of tissue. Further, the “M4N level accumulated in blood and tumors” value in series [3] is reported as “above 1 mM”. The “mice with lung metastasis lesions” value in series [4] (combination groups at 80 days after tumor implantation) is 2 out of 4. In [4] (mouse, in vivo), the “time after implantation by which all mice died” value was at most 33 days. Moreover, the “life-span of 67NR-bearing mice” value in series [5] was “didn't have much effect on the life-span”. Further, the TUNEL-positive cell death result in [6] was “did not detect many TUNEL-positive cells”. Also, the TUNEL-positive cell death entry in series [7] is “more cell death in 67NR cells than 4T1 cells”. Also, the “life-span of 4T1-bearing mice” value in series [8] was “didn't extend the life-span”. In series [9], the “cellular distribution / nuclear staining of total PKCδ” value is “did not change much”. Also, the “nuclear staining for phosphor-PKCδ (Thr505) in the presence of Des” value in series [9] (with Desferoxamine 150 μM) is on record as “markedly augmented nuclear staining”. For the same molecule, in [9] (without Desferoxamine co-treatment), the “nuclear staining for phosphor-PKCδ (Thr505)” value is “augmented staining”. Also, in series [10], the “expression and nuclear level of total PKCδ” value is listed as “Neither M4N, Ro, nor Ly treatment caused any remarkable change”; the “nuclear expression of phosphor-PKCδ (Thr507)” value is recorded as “augmented”.

The values are drawn from patent USRE46907E1, “Suppression of cancer growth and metastasis using nordihydroguaiaretic acid derivatives with metabolic modulators” (THE JOHNS HOPKINS UNIVERSITY, priority 2008, dated 2018).
